In ChEMBL document CHEMBL3352655, “Synthesis and biological evaluation of norcantharidin derivatives as protein phosphatase-1 inhibitors” (Bioorg Med Chem Lett, 2015):
Active and inactive are the calls of the source. The calls are words filed in the database; no cut-off is given here.

Tests used:
[1] = Cytotoxicity against human HCT8 cells after 48 hrs by MTT assay; format: functional, cell-based; conditions: HCT-8, 48 h
[2] = test system: HepG2; assay: Cytotoxicity against human HepG2 cells after 48 hrs by MTT assay; format: functional, cell-based; conditions: HepG2, 48 h
[3] = Cytotoxicity against human WI38 cells after 48 hrs by MTT assay; format: cell-based; conditions: WI-38, 48 h
[4] = test system: A549; assay: Cytotoxicity against human A549 cells after 48 hrs by MTT assay; format: functional, cell-based; conditions: A549, 48 h
[5] = test system: HeLa; assay: Cytotoxicity against human HeLa cells after 48 hrs by MTT assay; format: functional, cell-based
[6] = Partition coefficient, log P of the compound; format: physicochemical; conditions: octanol/water
[7] = (§1) Inhibition of protein phosphatase-1 (unknown origin) using phosphopeptide (Lys-Arg-pThr-Ile-Arg) substrate incubated for 60 mins by colorimetric analysis based serine/threonine assay; set-up: species or system Homo sapiens
[8] = test system: HeLa; assay: Induction of nuclear condensation in human HeLa cells at 5 uM after 24 hrs by DAPI staining based immunofluorescence assay; format: functional, cell-based
[9] = test system: HeLa; assay: Inhibition of microtubule formation in human HeLa cells at 5 uM after 24 hrs by DAPI staining based immunofluorescence assay; format: functional, cell-based
[10] = test system: HeLa; assay: Induction of cell shrinkage in human HeLa cells at 5 uM after 24 hrs by DAPI staining based immunofluorescence assay; format: functional
[11] = test system: HeLa; assay: Induction of nuclear fragmentation in human HeLa cells at 5 uM after 24 hrs by DAPI staining based immunofluorescence assay; format: functional, cell-based
[12] = species on record: Homo sapiens; assay: as §1
[13] = test system: Calf thymus DNA; assay: Binding affinity to calf thymus DNA assessed as reduction in fluorescence intensity of compound-DNA complex at 1 uM by fluorescence spectroscopy; format: nucleic-acid assay; conditions: Bos taurus

Row | Compound | IC50 [1] [µM] | IC50 [2] [µM] | IC50 [3] [µM] | IC50 [4] [µM] | IC50 [5] [µM] | logP [6] | IC50 [7] [nM] | Activity [8] | inhibition [9] | Activity [10] | Activity [11] | inhibition [12] | Activity [13]
1 | O=C(Nc1ccc(S(=O)(=O)NC2CCCC2)cc1)C1C(C(=O)O)[C@H]2CC[C@@H]1O2 (stereo not given in full) | 30.2 | 22.3 | 59 | 20.1 | 17.6 | 0.2 |  |  |  |  |  |  | 
2 | O=C1[C@@H]2[C@H](C(=O)N1c1ccc(S(=O)(=O)N3CCOCC3)cc1)[C@@H]1CC[C@H]2O1 | 43.5 | 28.7 | 52.1 | 39.2 | 16.3 | 0.9 |  |  |  |  |  |  | 
3 | O=C(Nc1ccc(S(=O)(=O)NC2CCCCC2)cc1)C1C(C(=O)O)[C@H]2CC[C@@H]1O2 (stereo not given in full) | 31 | 22.5 | 62.5 | 36.2 | 18.7 | 0.2 |  |  |  |  |  |  | 
4 | O=C1[C@@H]2[C@H](C(=O)N1c1ccc(S(=O)(=O)N3CCN(c4ccc(F)cc4)CC3)cc1)[C@@H]1CC[C@H]2O1 | 32.1 | 25.6 | 51.8 | 25.8 | 18.6 | 1.4 | 2300 |  |  |  |  |  | 
5 | O=C(Nc1ccc(S(=O)(=O)NC2CC2)cc1)C1C(C(=O)O)[C@H]2CC[C@@H]1O2 (stereo not given in full) | 28.3 | 26.2 | 52.1 | 34.3 | 20.9 | 0.2 |  |  |  |  |  |  | 
6 | O=C(Nc1ccc(S(=O)(=O)N2CCOCC2)cc1)C1C(C(=O)O)[C@H]2CC[C@@H]1O2 (stereo not given in full) | 31.3 | 19.3 | 48.8 | 24.2 | 17.2 | 0.4 |  |  |  |  |  |  | 
7 | O=C1OC(=O)C2C3CCC(O3)C12 (stereo not given) [DEMETHYL-CANTHARIDIN] | 28.4 | 24.7 | 26.7 | 12.1 | 12.4 | 0.7 | 2600 |  |  |  |  |  | 
8 | O=C(Nc1ccc(S(=O)(=O)N2CCN(c3ccc(F)cc3)CC2)cc1)C1C(C(=O)O)[C@H]2CC[C@@H]1O2 (single isomer, unassigned) | 16.6 | 14.4 | 50.2 | 18.4 | 6.3 | 0.6 | 200 | Active | Active | Active | Active | Dose-dependent effect | Active
9 | CCOC(=O)Cc1csc(NC(=O)C2C(C(=O)O)[C@H]3CC[C@@H]2O3)n1 (stereo not given in full) | > 100 | > 100 | > 100 | > 100 | > 100 | 0.8 |  |  |  |  |  |  | 
10 | CCN1CCN(S(=O)(=O)c2ccc(NC(=O)C3C(C(=O)O)[C@H]4CC[C@@H]3O4)cc2)CC1 (stereo not given in full) | 27.4 | 20.2 | 73.1 | 28.4 | 15.7 | 0.4 |  |  |  |  |  |  | 
11 | O=C1[C@@H]2[C@H](C(=O)N1c1ccc(S(=O)(=O)NC3CCCC3)cc1)[C@@H]1CC[C@H]2O1 | 32.8 | 23.5 | 40.3 | 32.5 | 20.7 | 1.1 |  |  |  |  |  |  | 
